Test results published in patent US12084451B2, “Compositions and methods for reducing tactile dysfunction, anxiety, and social impairment” (President and Fellows of Harvard College, priority 2018, dated 2024).
“And” between values parts separate entries of the source, which are not always exact repeats. Equal entries are not always repeated.

What was measured:
[1] = system: Mecp2, Shank3, and Fmr1 mutant mice; assay: animal models of ASD; type: in vivo; settings: three animal models of ASD (Mecp2, Shank3, and Fmr1 mutant mice)
Source text: These findings raise the exciting possibility that GABAA receptor agonists, which attenuate the activity of peripheral mechanosensory neurons, may be useful for treating tactile hypersensitivity and thus anxiety and social impairments in ASD patients. Treating young children with GABAA receptor agonists has traditionally been avoided because of undesirable side effects of these drugs in children. Indeed, there is great reluctance on the part of physicians to use FDA-approved GABAA receptor agonists and positive allosteric modulators because of undesirable side effects, including sedation, and serious complications associated with interference with brain development. […] Importantly, peripherally-restricted GABAA receptor agonists should not promote undesirable side effects observed with all currently used, FDA-approved GABAA receptor agonists that act in the brain.

hGABAA α1β3γ2 [2] = biological target: T1, hGABAA α1β3γ2 (Homo sapiens, UniProt P14867+P18507+P28472); assay: hGABAA IonFlux HT PAM Assay, α1β3γ2; type: cell-based
Source text: (§1) Ligand-gated ion channels targeted were hGABAA α1β3γ2 and hGABAA α2β3γ2.
(§2) Electrophysiological assays conducted to profile nine (9) compounds for activities on the on channel targets listed above for Positive Allosteric Modulator (PAM) activities using the IonFlux HT electrophysiological platform.
The parameters measured are described in the Data Analysis section.
(§3) All wells included a final DMSO concentration of 0.33% including all control wells.
(§4) All recordings were obtained from a holding potential of −60 mV. The compound addition sequence that was used for all additions was the same for all assays. […] The process was repeated with the next ascending concentration of test compound (FIG. 1).
(§5) All data were first exported to an Excel compatible data file and then analyzed using Graph Pad Prism software.

GABAA targets = settings: previous study (US034-0003415); cited from earlier work
hGABAA α1β3γ2 [3] = biological target: T1, hGABAA α1β3γ2; assay: hGABAA α1β3γ2 IonFlux HT Agonist Assay; type: cell-based; settings: for Normalized Percentage Activation Mean: normalized to EC100 GABA (30 μM)
Method: Ligand-gated ion channel targets were hGABAA α2β3γ2 and hGABAA α1β3γ2. Electrophysiological assays conducted to profile two compounds for agonist activities on hGABAA α2β3γ2 and seven compounds for agonist activities on hGABAA α1β3γ2 using the IonFlux HT electrophysiological platform.
The parameters measured are described in the Data Analysis section. […] Note: The test compounds was applied over two (2) ‘experimental patterns’ in increasing concentrations.
The supplied compound was prepared in DMSO to concentrations that were 300× the final assay concentrations. Aliquots were taken out and diluted 300× into external buffer to give the final assay concentration. At wells included a final DMSO concentration of 0.33% including all control wets.
All recordings were obtained from a holding potential of −60 mV. The compound addition sequence that was used for all additions was the same for all assays. […] Each test concentration of compound was applied for 2 seconds followed by 60 seconds wash. The process was repeated with the next ascending concentration of test compound. The test compounds were applied over two (2) ‘experimental patterns’ in increasing concentrations (FIG. 11).
AM data were first exported to an Excel compatible data file and then analyzed using Graph Pad Prism software.

hGABAA α2β3γ2 = hGABAA α2β3γ2 (Homo sapiens, UniProt P18507+P28472+P47869); assay: hGABAA IonFlux HT PAM Assay, α2β3γ2; type: cell-based
Source text: as §1, §2
The parameters measured are described in the Data Analysis section. […] Open circles represent data that has been excluded from the curve fitting. Where no curve fit was possible, n/c (not calculable) is listed.
as §3, §4, §5

SNL rats = assay: Rat spinal nerve ligation (SNL) model of neuropathic pain, Von frey test; type: in vivo, SD Rat; settings: 5 mpk IP; for Von frey test 50% g Threshold, group mean: N 8
Method: Chung surgery were conducted on anesthetized rats. Rats were habituated in the testing environment for 15 minutes before allodynia measurement (2-3 times). Pre-dose baseline were taken on day 9 post surgery. Rats that don't show allodynic response at this point were excluded. SNL rats with a paw withdrawal threshold >4 g. The animals were grouped according to 50% paw withdrawal threshold (g) and weight. The animals were dosed test articles and vehicle according to the dose protocol. On the testing day (Day 9), rats were dosed with testing articles with 16 min interval between groups. Rats were measured for allodynic response at 0.75, 1.5, 3 h time point post dosing. All values will be expressed as mean±S.E.M. The significance of the differences among groups will be evaluated by two-way ANOVA followed by Dunnett's test using graphpad Prism 6 software. A p value of less than 0.05 is considered statistically significant.

[4] = positive modulation of EC20 GABA current

hGABAA α2β3γ2, sequence (P47869 29-451): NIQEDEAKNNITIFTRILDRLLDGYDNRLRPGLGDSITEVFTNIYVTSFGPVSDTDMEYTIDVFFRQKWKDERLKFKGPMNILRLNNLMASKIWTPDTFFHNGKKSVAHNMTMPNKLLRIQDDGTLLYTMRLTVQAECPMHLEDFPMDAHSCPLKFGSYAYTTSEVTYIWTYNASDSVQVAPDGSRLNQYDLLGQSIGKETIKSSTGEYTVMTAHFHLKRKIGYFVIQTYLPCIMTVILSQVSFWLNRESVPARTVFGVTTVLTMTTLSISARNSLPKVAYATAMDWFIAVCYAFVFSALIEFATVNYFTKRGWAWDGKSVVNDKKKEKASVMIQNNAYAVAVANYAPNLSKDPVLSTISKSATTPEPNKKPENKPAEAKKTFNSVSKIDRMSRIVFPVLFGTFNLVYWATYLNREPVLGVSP
hGABAA α2β3γ2, sequence (P28472 26-473): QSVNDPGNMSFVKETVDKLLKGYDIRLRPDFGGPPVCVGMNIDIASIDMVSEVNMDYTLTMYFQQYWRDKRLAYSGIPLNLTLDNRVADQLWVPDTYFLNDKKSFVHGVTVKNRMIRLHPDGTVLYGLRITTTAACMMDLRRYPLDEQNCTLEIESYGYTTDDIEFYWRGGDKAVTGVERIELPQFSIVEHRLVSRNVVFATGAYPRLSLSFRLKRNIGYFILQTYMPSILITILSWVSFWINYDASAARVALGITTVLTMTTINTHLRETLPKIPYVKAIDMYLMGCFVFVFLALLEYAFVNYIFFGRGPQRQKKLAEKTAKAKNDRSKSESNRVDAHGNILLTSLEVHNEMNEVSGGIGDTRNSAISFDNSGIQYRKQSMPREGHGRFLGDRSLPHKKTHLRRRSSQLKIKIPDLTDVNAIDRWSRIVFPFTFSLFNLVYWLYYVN
hGABAA α2β3γ2, sequence (P18507 40-475): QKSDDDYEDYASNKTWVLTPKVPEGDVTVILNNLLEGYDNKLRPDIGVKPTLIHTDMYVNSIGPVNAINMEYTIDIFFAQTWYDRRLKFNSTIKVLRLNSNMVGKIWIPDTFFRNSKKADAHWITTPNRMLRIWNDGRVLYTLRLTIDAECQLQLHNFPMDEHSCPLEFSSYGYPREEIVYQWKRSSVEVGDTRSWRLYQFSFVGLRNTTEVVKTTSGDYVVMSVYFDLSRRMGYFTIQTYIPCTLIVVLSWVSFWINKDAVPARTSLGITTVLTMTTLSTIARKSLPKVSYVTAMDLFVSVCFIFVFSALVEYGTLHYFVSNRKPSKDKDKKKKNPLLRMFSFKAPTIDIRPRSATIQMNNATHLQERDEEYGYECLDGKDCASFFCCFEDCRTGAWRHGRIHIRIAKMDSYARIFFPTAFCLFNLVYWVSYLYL
T1 sequence (P14867 28-456): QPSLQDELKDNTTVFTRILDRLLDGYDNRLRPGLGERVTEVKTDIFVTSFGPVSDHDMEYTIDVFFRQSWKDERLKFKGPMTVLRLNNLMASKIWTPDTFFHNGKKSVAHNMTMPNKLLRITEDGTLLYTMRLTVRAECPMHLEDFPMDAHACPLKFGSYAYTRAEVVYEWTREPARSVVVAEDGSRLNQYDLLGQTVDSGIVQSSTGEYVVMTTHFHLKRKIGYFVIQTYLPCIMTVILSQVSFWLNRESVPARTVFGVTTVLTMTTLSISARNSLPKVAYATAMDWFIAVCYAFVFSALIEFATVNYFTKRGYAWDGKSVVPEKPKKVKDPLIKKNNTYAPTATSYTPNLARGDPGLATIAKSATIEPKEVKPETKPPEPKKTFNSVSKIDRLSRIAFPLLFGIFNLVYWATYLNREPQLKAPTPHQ
T1 sequence (P28472 26-473): as the sequence (P28472 26-473) above
T1 sequence (P18507 40-475): as the sequence (P18507 40-475) above

Q: Which results are given for `O=C(O)C1=CCNCC1` [Isoguvacine]?
A: effect on tactile hypersensitivity, anxiety-like behaviors and social impairments [1]: improves tactile hypersensitivity, anxiety-like behaviors and social impairments; (%) Control mean (hGABAA α1β3γ2 [2]; 0.001 μM + EC20 GABA): 103.6 % Control; (%) Control n1 (hGABAA α1β3γ2 [2]; 0.001 μM + EC20 GABA): 99.0 % Control; (%) Control n2 (hGABAA α1β3γ2 [2]; 0.001 μM + EC20 GABA): 108.2 % Control; (%) Control mean (hGABAA α1β3γ2 [2]; 0.01 μM + EC20 GABA): 109.8 % Control; (%) Control n1 (hGABAA α1β3γ2 [2]; 0.01 μM + EC20 GABA): 108.8 % Control; (%) Control n2 (hGABAA α1β3γ2 [2]; 0.01 μM + EC20 GABA): 110.8 % Control; (%) Control mean (hGABAA α1β3γ2 [2]; 0.1 μM + EC20 GABA): 113.7 % Control; (%) Control n1 (hGABAA α1β3γ2 [2]; 0.1 μM + EC20 GABA): 110.0 % Control; (%) Control n2 (hGABAA α1β3γ2 [2]; 0.1 μM + EC20 GABA): 117.4 % Control; (%) Control mean (hGABAA α1β3γ2 [2]; 1 μM + EC20 GABA): 119.8 % Control; (%) Control n1 (hGABAA α1β3γ2 [2]; 1 μM + EC20 GABA): 124.5 % Control; (%) Control n2 (hGABAA α1β3γ2 [2]; 1 μM + EC20 GABA): 115.2 % Control; (%) Control mean (hGABAA α1β3γ2 [2]; 10 μM + EC20 GABA): 73.0 % Control; (%) Control n1 (hGABAA α1β3γ2 [2]; 10 μM + EC20 GABA): 76.1 % Control; (%) Control n2 (hGABAA α1β3γ2 [2]; 10 μM + EC20 GABA): 69.9 % Control; (%) Control mean (hGABAA α1β3γ2 [2]; 100 μM + EC20 GABA): 8.0 % Control; (%) Control n1 (hGABAA α1β3γ2 [2]; 100 μM + EC20 GABA): 7.6 % Control; (%) Control n2 (hGABAA α1β3γ2 [2]; 100 μM + EC20 GABA): 8.3 % Control; Mean Maximal Effect (% of Control) (hGABAA α1β3γ2 [2]; normalized to baseline peak current induced by EC20 GABA (1 μM) for 2 seconds): 120 % of Control; Estimated EC50 (hGABAA α1β3γ2 [2]; [4]): n/c*; agonist activity against GABAA targets (GABAA targets): exhibited agonist activity; Normalized Percentage Activation Mean (hGABAA α1β3γ2 [3]; 0.3 μM): 1.61%; Normalized Percentage Activation Mean (hGABAA α1β3γ2 [3]; 1 μM): 2.18%; Normalized Percentage Activation Mean (hGABAA α1β3γ2 [3]; 3 μM): 6.83%; Normalized Percentage Activation Mean (hGABAA α1β3γ2 [3]; 10 μM): 30.46%; Normalized Percentage Activation Mean (hGABAA α1β3γ2 [3]; 30 μM): 65.63%; Normalized Percentage Activation Mean (hGABAA α1β3γ2 [3]; 100 μM): 84.77%; Normalized Percentage Activation Mean (hGABAA α1β3γ2 [3]; 300 μM): 92.72%; Normalized Percentage Activation Mean (hGABAA α1β3γ2 [3]; 10000 μM): 93.46%; EC50 (hGABAA α1β3γ2 [3]; agonist activation of channel currents, read-out: Estimated EC50): 19.7 µM; (%) Control mean (hGABAA α2β3γ2; 0.001 μM + EC20 GABA): 95.4 % Control; (%) Control n1 (hGABAA α2β3γ2; 0.001 μM + EC20 GABA): 94.5 % Control; (%) Control n2 (hGABAA α2β3γ2; 0.001 μM + EC20 GABA): 96.3 % Control; (%) Control mean (hGABAA α2β3γ2; 0.01 μM + EC20 GABA): 93.2 % Control; (%) Control n1 (hGABAA α2β3γ2; 0.01 μM + EC20 GABA): 90.4 % Control; (%) Control n2 (hGABAA α2β3γ2; 0.01 μM + EC20 GABA): 96.0 % Control; (%) Control mean (hGABAA α2β3γ2; 0.1 μM + EC20 GABA): 88.9 % Control; (%) Control n1 (hGABAA α2β3γ2; 0.1 μM + EC20 GABA): 85.9 % Control; (%) Control n2 (hGABAA α2β3γ2; 0.1 μM + EC20 GABA): 91.8 % Control; (%) Control mean (hGABAA α2β3γ2; 1 μM + EC20 GABA): 92.3 % Control; (%) Control n1 (hGABAA α2β3γ2; 1 μM + EC20 GABA): 95.4 % Control; (%) Control n2 (hGABAA α2β3γ2; 1 μM + EC20 GABA): 89.3 % Control; (%) Control mean (hGABAA α2β3γ2; 10 μM + EC20 GABA): 45.7 % Control; (%) Control n1 (hGABAA α2β3γ2; 10 μM + EC20 GABA): 55.0 % Control; (%) Control n2 (hGABAA α2β3γ2; 10 μM + EC20 GABA): 36.4 % Control; (%) Control mean (hGABAA α2β3γ2; 100 μM + EC20 GABA): 6.9 % Control; (%) Control n1 (hGABAA α2β3γ2; 100 μM + EC20 GABA): 8.4 % Control; (%) Control n2 (hGABAA α2β3γ2; 100 μM + EC20 GABA): 5.3 % Control; Mean Maximal Effect (% of Control) (hGABAA α2β3γ2; normalized to baseline peak current induced by EC20 GABA (0.8 μM) for 2 seconds): 95 % of Control; Estimated EC50 (hGABAA α2β3γ2; [4]): n/c*; Von frey test 50% g Threshold, group mean (SNL rats; 0 Hour (pre-dose baseline), 5 mg/kg): 2.32 g and 2.3 ± 0.33 g; 50% g Threshold, individual animal (SNL rats; 0 Hour (pre-dose baseline, day 9 post surgery), 5 mg/kg): 0.99 g and 1.10 g and 1.85 g and 2.23 g and 2.81 g and 3.00 g and 3.31 g (2×); 50% g Threshold, individual animal (SNL rats; 0.75 Hour post dosing, 5 mg/kg): 1.31 g (2×) and 2.37 g (2×) and 2.81 g and 1.56 g (2×) and 0.99 g; Von frey test 50% g Threshold, group mean (SNL rats; 0.75 Hour, 5 mg/kg): 1.78 g and 1.8 ± 0.23 g; 50% g Threshold, individual animal (SNL rats; 1.5 Hour post dosing, 5 mg/kg): 1.85 g (3×) and 2.37 g and 0.82 g and 2.81 g and 1.56 g and 2.64 g; Von frey test 50% g Threshold, group mean (SNL rats; 1.5 Hour, 5 mg/kg): 1.97 g and 2.0 ± 0.23 g; 50% g Threshold, individual animal (SNL rats; 3 Hour post dosing, 5 mg/kg): 2.81 g and 6.74 g and 7.91 g and 3.33 g and 5.15 g and 4.34 g and 5.77 g and 3.31 g; Von frey test 50% g Threshold, group mean (SNL rats; 3 Hour): 4.9 ± 0.64 g; analgesia effect (SNL rats; 3 hour time point): significant analgesia effect
